Measurements as given in patent publication EP1561465A2, “Methods of use of fluoroquinolone compounds against bacteria” (LG Life Sciences, Ltd., priority 1999, dated 2001).
Converted amounts (≈) assume the structure as drawn. Like-named read-outs stand apart in the source and are kept apart here.

Assays:
Type in all cases: cell-based
[1] = tested on: Staphylococcus epidermidis; test: MIC by NCCLS broth microdilution, 1100 Japanese clinical isolates 1997-1998; conditions: for MIC50 / MIC90: Staphylococcus epidermidis
[2] = tested on: Providencia rettgeri; test: as above; conditions: Providencia rettgeri (n=12)
[3] = tested on: Proteus vulgaris; test: as above; conditions: Proteus vulgaris (n=25)
[4] = tested on: Streptococcus pneumoniae; test: as above; conditions: for MIC50 / MIC90 / MIC: Streptococcus pneumoniae; for MIC50: read-out: MIC50; for MIC90: read-out: MIC90; for MIC: Streptococcus pneumoniae quinolone resistant
[5] = tested on: Proteus mirabilis; test: as above; conditions: Proteus mirabilis (n=30)
[6] = tested on: Salmonella spp.; test: as above; conditions: Salmonella spp. (n=29)
[7] = tested on: P. aeruginosa; test: MIC by two-fold serial agar dilution, quinolone-resistant strains; conditions: Pseudomonas aeruginosa
[8] = Staphylococcus epidermidis oxacillin resistant (n=43)
[9] = Staphylococcus epidermidis oxacillin susceptible (n=35)
[10] = Streptococcus pneumoniae amoxicillin resistant (n=40)
[11] = Streptococcus pneumoniae amoxicillin susceptible (n=35)
[12] = Streptococcus pneumoniae erythromycin resistant (n=34)
[13] = Streptococcus pneumoniae erythromycin susceptible (n=11)

With `C[C@@H]1CN(c2c(F)c(N)c3c(=O)c(C(=O)O)cn(C4CC4)c3c2F)C[C@H](C)N1` [Sparfloxacin, sparfloxacin] the “MIC Range” value [1, 8] was 0.032 to 16 µg/mL, the “MIC Range” value [1, 9] was 0.032 to 8 µg/mL and the MIC50 [1, 8] was 4 µg/mL (≈ 10.2 µM). It also gave an MIC90 [1, 8] of 8 µg/mL (≈ 20.4 µM), an MIC50 [1, 9] of 0.063 µg/mL (≈ 0.161 µM) and an MIC90 [1, 9] of 4 µg/mL (≈ 10.2 µM). The MIC90 [2] was 16 µg/mL (≈ 40.8 µM), the “MIC Range” value [2] was 0.125 to 16 µg/mL and the MIC50 ([2]; read-out: MIC50) was 0.25 µg/mL (≈ 0.637 µM). The “MIC Range” value [3] was 0.063 to 2 µg/mL, the MIC50 ([3]; read-out: MIC50) was 0.25 µg/mL (≈ 0.637 µM) and the MIC90 ([3]; read-out: MIC90) was 1 µg/mL (≈ 2.55 µM). The “MIC Range” value [4, 10] was 0.125 to 4 µg/mL, the “MIC Range” value [4, 11] was 0.032 to 4 µg/mL and the “MIC Range” value [4, 12] was 0.032 to 4 µg/mL. For the same compound, the “MIC Range” value [4, 13] was 0.125 to 0.25 µg/mL, the MIC50 [4, 10] was 0.25 µg/mL (≈ 0.637 µM) and the MIC90 [4, 10] was 0.25 µg/mL (≈ 0.637 µM). It also gave an MIC50 [4, 11] of 0.25 µg/mL (≈ 0.637 µM), an MIC90 [4, 11] of 0.5 µg/mL (≈ 1.27 µM) and an MIC50 [4, 12] of 0.25 µg/mL (≈ 0.637 µM). The MIC90 [4, 12] was 0.25 µg/mL (≈ 0.637 µM), the MIC50 [4, 13] was 0.25 µg/mL (≈ 0.637 µM) and the MIC90 [4, 13] was 0.25 µg/mL (≈ 0.637 µM). The MIC ([4]; strain TMS1) was 0.5 µg/mL (≈ 1.27 µM), the MIC ([4]; strain TMS2) was 8 µg/mL (≈ 20.4 µM) and the “MIC Range” value [5] was 0.063 to 16 µg/mL. For the same compound, the MIC50 ([5]; read-out: MIC50) was 0.25 µg/mL (≈ 0.637 µM), the MIC90 ([5]; read-out: MIC90) was 0.5 µg/mL (≈ 1.27 µM) and the MIC50 [6] was 0.032 µg/mL (≈ 0.0815 µM). For the same compound, the MIC90 [6] was 0.063 µg/mL (≈ 0.161 µM), the “MIC Range” value [6] was 0.016 to 0.063 µg/mL and the MIC [7] was 2 µg/mL (≈ 5.1 µM).
